According to patent publication US20120270928A1, “MICRORNA COMPOUNDS AND METHODS FOR MODULATING MIR-21 ACTIVITY” (REGULUS THERAPEUTICS INC., priority 2011, published 2012):
Where “and” joins values, the source holds several entries; their conditions need not be identical. Equal values may be shown once. Entries after “also recorded” stand apart in the source; their conditions may differ.

Columns and labels:
[1] = tested on: miR-21; assay: miR-21 luciferase sensor assay in Hela cells; assay type: cell-based
[2] = tested on: model of ischemia reperfusion injury (IRI); assay: Unilateral ischemia reperfusion injury (IRI) model: kidney collagen 1A1 and collagen 3A1 expression; assay type: in vivo, mouse; conditions: for Collagen 3A1 (Normalized Expression) Mean / Collagen 1A1 (Normalized Expression) Mean: group mean; for Collagen 1A1 (Normalized Expression) / Collagen 3A1 (Normalized Expression): individual animals
Protocol: A model of ischemia reperfusion injury (IRI) is created in the mouse through unilateral or bilateral clamping of kidney arteries, which leads to tubule damage, inflammation, and fibrosis. Kidney dysfunction can occur either early (<5 days) or late (>7 days) in this model, with the early time points useful to test candidate agents for the treatment of acute kidney injury, and the later time points useful to model chronic fibrosis.
Anti-miR-21 compounds were tested in the unilateral IRI model. Unilateral IRI was induced for a period of 30 minutes. Treatment groups were as follows: sham IRI procedure; IRI with PBS administered subcutaneously; IRI with anti-miR-21 compound 25070 administered intraperitoneally at a dose of 20 mg/kg; the 2′-fluoro/2′-MOE modified anti-miR-21 25919 administered intraperitoneally at a dose of 20 mg/kg; and a 2′-fluoro/2′ modified mismatch anti-miR-21 (having three mismatches to the sequence of miR-21) 25319 administered intraperitoneally at a dose of 20 mg/kg. PBS or anti-miR compound was administered on days 5, 6, and 7 following IRI, and animals were sacrificed 14 days after IRI. As anti-miR compound is administered 5 days following the injury to the kidney, or later, when fibrosis has already occurred to some extent, this treatment regimen is considered a therapeutic regimen, rather than a prophylactic regimen.
Kidney tissue was collected for analysis of collagen 1A1 and collagen 3A1 expression (shown in Table 0), and collagen area fraction (shown in Table P).
A similar study was performed with the same treatment groups and additional days of treatment. In this study, treatments were administered intraperitoneally at days 5, 6, 7, 14, and 21 following the IRI procedure Animals were sacrificed on Day 27, and kidney tissue was collected for analysis of collagen 1A1 and collagen 3A1 expression, as well as collagen area fraction.
In order to assess the flexibility of administration of the anti-miR-21 compound 25070, the activity of the compound in the 14 day study above, where anti-miR-21 was administered at […] following the IRI procedure, to a different 14 day study where anti-miR-21 was administered intraperitoneally at days 3, 5, and 7 following the IRI procedure.

[3] = 4 nM oligonucleotide, Hela cells
[4] = 20 nM oligonucleotide, Hela cells
[5] = 100 nM oligonucleotide, Hela cells
[6] = 500 nM oligonucleotide, Hela cells, two experimental replicates
[7] = .16 nM oligonucleotide, Hela cells
[8] = .8 nM oligonucleotide, Hela cells
[9] = Table O, unilateral IRI, 20 mg/kg intraperitoneally on days 5, 6, 7, day 14, IRI-PBS mean 63.9
[10] = Table O, unilateral IRI, 20 mg/kg intraperitoneally on days 5, 6, 7, day 14, IRI-PBS mean 85.1
[11] = Table O, unilateral IRI 30 minutes, 20 mg/kg intraperitoneally on days 5, 6, 7 (therapeutic), sacrifice 14 days after IRI, 20 mg/kg
[12] = IRI mouse, 14 day study, dosing Day 5, 6, 7, relative to sham
[13] = IRI mouse, 14 day study, intraperitoneal dosing Day 3, 5, 7, relative to sham
[14] = unilateral IRI mouse, 20 mg/kg intraperitoneally on days 5, 6, 7, 14, and 21, kidney, sacrificed Day 27
[15] = unilateral IRI mouse, 20 mg/kg intraperitoneally on days 5, 6, 7, 14, and 21, kidney, sacrificed Day 27, 20 mg/kg

Row | Sequence | luciferase value normalized to beta-galactosidase activity [1, 3] | luciferase value normalized to beta-galactosidase activity [1, 4] | luciferase value normalized to beta-galactosidase activity [1, 5] | luciferase value normalized to beta-galactosidase activity [1, 6] | luciferase value normalized to beta-galactosidase activity [1, 7] | luciferase value normalized to beta-galactosidase activity [1, 8] | Collagen 3A1 (Normalized Expression) Mean [2, 9] | Collagen 1A1 (Normalized Expression) Mean [2, 10] | Collagen 1A1 (Normalized Expression) [2, 11] | Collagen 3A1 (Normalized Expression) [2, 11] | Collagen 1A1 (Normalized Expression) Mean [2, 14] | Collagen 3A1 (Normalized Expression) Mean [2, 14] | Collagen 1A1 (Normalized Expression) [2, 15] | Collagen 3A1 (Normalized Expression) [2, 15] | also measured
1 | AECSATCSAGTCSTGAUSAAGCSTAE (ACATCAGTCTGATAAGCTA; modified nucleosides, phosphorothioate linkages, chemistry not fully specified) [Compound 25070] | 99 | 128 | 132 | 165 | 65 | 87 | 34.2 | 50.2 | 81.7 and 57.4 and 37.9 and 55.3 and 22.3 and 52.4 and 53.0 and 41.5 | 57.8 and 18.1 and 39.3 and 36.0 and 20.6 and 38.6 and 33.4 and 29.7 | 31.4 | 20.8 | 26.4 and 37.4 and 41.9 and 36.8 and 14.1 and 27.7 and 29.4 and 37.6 | 16.4 and 27.0 and 28.5 and 19.6 and 11.3 and 19.3 and 21.4 and 23.1 | inhibition of miR-21 activity in the luciferase assay (in words) ([1]; Hela cells): inhibition of miR-21 in a dose-dependent manner; also recorded: potent inhibitor of miR-21 activity; fold change in luciferase value relative to the mock treatment ([1]; concentration of anti-miR compound 0.2 (unit not given)): 1.04 fold change; fold change in luciferase value relative to the mock treatment ([1]; concentration of anti-miR compound 0.6 (unit not given)): 1.01 fold change; fold change in luciferase value relative to the mock treatment ([1]; concentration of anti-miR compound 1.9 (unit not given)): 1.14 fold change; fold change in luciferase value relative to the mock treatment ([1]; concentration of anti-miR compound 5.6 (unit not given)): 6.22 fold change; fold change in luciferase value relative to the mock treatment ([1]; concentration of anti-miR compound 16.7 (unit not given)): 11.28 fold change; fold change in luciferase value relative to the mock treatment ([1]; concentration of anti-miR compound 50.0 (unit not given)): 11.00 fold change; reduction of collagen expression (collagen 1A1 or collagen 3A1, significance) ([2]; IRI, 14 day studies, either dosing schedule (days 5, 6, 7 or days 3, 5, 7)): statistically significant reduction of collagen expression with either dosing schedule; Collagen 1A1 (Normalized Expression) Mean [2, 12]: 24.5; Collagen 3A1 (Normalized Expression) Mean [2, 12]: 26.2; Collagen 1A1 (Normalized Expression) Mean [2, 13]: 27.2; Collagen 3A1 (Normalized Expression) Mean [2, 13]: 27.9; Collagen 1A1 (Normalized Expression) [2, 12]: 21.7 and 22.8 and 15.8 and 27.6 and 27.1 and 29.3 and 10.8 and 21.5 and 29.9 and 35.0 and 28.3 and 24.2; Collagen 3A1 (Normalized Expression) [2, 12]: 24.9 and 26.3 and 13.6 and 25.4 and 32.7 and 29.9 and 9.7 and 22.2 and 33.2 and 35.4 and 32.3 and 28.9; Collagen 1A1 (Normalized Expression) [2, 13]: 37.5 and 21.9 and 35.3 and 26.0 and 24.9 and 16.8 and 30.8 and 34.3 and 36.8 and 9.4 and 28.0 and 24.6; Collagen 3A1 (Normalized Expression) [2, 13]: 35.3 and 23.6 and 32.1 and 25.1 and 31.3 and 18.6 and 30.3 and 37.6 and 40.0 and 9.5 and 23.2 and 28.7
2 | UECEAFAFCFAFUFCFAFGFUFCEUEGEAFUFAFAFGFCFUEAE (antisense TCAACATCAGTCTGATAAGCTA; listed as DNA, chemistry not fully specified) [Compound 25919, reference compound] | 84 | 114 | 171 | 202 | 40 | 53 | 59.9 | 72.0 | 108.7 and 103.9 and 29.5 and 95.8 and 35.5 and 42.2 and 64.1 and 96.4 | 87.5 and 72.3 and 14.3 and 104.4 and 27.1 and 34.9 and 56.1 and 82.8 | 48.3 | 34.9 | 75.5 and 50.4 and 49.2 and 43.2 and 41.7 and 53.6 and 44.8 and 28.0 | 40.2 and 43.1 and 34.5 and 35.7 and 41.1 and 36.9 and 24.5 and 22.9 | –
